The structures appear in SMILES notation. Structures can show the parent of a compound that is named as a salt.

In the first experiment the target is T1, human mGluR4 (hmGluR4) (Homo sapiens, UniProt Q14833).
T1 construct: expressed in transfected cells; host or cells: HEK-293 cells, transient co-transfection by electroporation
T1 sequence (Q14833 33-912): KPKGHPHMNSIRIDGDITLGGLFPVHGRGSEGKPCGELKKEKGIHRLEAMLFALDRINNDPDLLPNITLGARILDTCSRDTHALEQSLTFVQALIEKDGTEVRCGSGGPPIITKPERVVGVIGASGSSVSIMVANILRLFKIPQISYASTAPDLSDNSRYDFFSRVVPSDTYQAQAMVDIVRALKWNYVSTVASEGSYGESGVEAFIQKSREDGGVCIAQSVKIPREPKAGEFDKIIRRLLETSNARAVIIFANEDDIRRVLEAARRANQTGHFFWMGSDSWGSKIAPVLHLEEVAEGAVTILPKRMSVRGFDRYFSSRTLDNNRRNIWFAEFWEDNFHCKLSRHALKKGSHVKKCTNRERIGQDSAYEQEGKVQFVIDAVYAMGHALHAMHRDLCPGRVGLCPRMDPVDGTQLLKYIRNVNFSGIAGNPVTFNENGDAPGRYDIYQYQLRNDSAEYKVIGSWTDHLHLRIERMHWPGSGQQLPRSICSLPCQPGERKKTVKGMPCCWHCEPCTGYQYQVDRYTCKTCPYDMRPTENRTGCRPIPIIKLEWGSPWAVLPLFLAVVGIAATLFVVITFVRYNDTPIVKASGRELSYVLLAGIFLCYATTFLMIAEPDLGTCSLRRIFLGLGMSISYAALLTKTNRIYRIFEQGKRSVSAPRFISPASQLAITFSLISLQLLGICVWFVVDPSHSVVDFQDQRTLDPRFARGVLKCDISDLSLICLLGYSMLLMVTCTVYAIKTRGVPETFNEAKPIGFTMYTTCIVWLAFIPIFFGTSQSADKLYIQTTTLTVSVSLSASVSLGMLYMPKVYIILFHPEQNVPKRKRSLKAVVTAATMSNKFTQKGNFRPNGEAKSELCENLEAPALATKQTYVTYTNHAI
In words: Calcium assay EC50 determination, positive allosteric modulator activity on hmGluR4 transiently over-expressed in HEK-293 cells. In kind it is cell-based. As to conditions: PAM mode with EC20 glutamate; hmGluR4 in HEK-293 cells; intracellular calcium (Fluo4AM); read-out: mGluR4 positive allosteric modulator activity, half maximal effective concentration (EC50). How it is done:
Compounds are tested successively for their agonist and positive allosteric modulator activities on human mGluR4 (hmGluR4) transiently over-expressed in HEK-293 cells. Compounds exert agonist activity if, by themselves in absence of glutamate, they are able to activate hmGluR4; and they exert positive allosteric modulator activity if they increase the action of glutamate.
HEK-293 cells are maintained in Modified Eagle's Medium supplemented with 10% Foetal Calf Serum, 1% Penicillin/Streptomycin and 1% non-essential amino acids at 37° C./5% CO2.
Cells are co-transfected by electroporation with four DNA plasmids encoding hmGluR4, a chimeric G protein allowing redirection of the activation signal to intracellular calcium pathway, and glutamate transporters to decrease extracellular glutamate concentration so as to limit receptor desensitization. After transfection, cells are cultured for 24 h at 37° C./5% CO2.
Calcium Assay EC50 determination
Receptor activity is detected by changes in intracellular calcium measured using the fluorescent Ca^2+ sensitive dye, Fluo4AM (Molecular Probes).
On the day of the assay, culture medium is aspirated and replaced during 3 hours by medium without serum supplemented with 1% Glutamax, 1% Penicillin/Streptomycin and 1% non-essential amino acids. Then, cells are washed with freshly prepared buffer B (HBSS 1× (PAA), Hepes 20 mM, MgSO4-7H2O 1 mM, Na2CO3 3.3 mM, CaCl2-2H2O 1.3 mM, 0.1% BSA, Probenecid 2.5 mM) and loaded at 37° C. in 5% CO2 for 1.5 hours with buffer B containing 1 μM Fluo4AM, 0.1 mg/mL Pluronic Acid, 7 μg/mL Glutamate Pyruvate Transaminase and 2 mM sodium pyruvate. Afterwards cells are washed twice with buffer B. Then cells are detached using StemPro Accutase (Fisher Scientific), resuspended in buffer B and seeded in 384 well plate at a density of 30,000 cells per well. Addition of compounds and intracellular Ca^2+ measurements (excitation 485 nm, emission 525 nm) are performed by the fluorescence microplate reader FLIP^Tetra (Molecular Devices).
Agonist and positive allosteric modulator activities of compounds are consecutively evaluated on the same cell plate. Agonist activity is first tested during 10 minutes with the addition of compound alone on the cells. Then, cells are stimulated by an EC20 glutamate concentration and fluorescence is recorded for additional 3 minutes. EC20 glutamate concentration is the concentration giving 20% of the maximal glutamate response. Agonist or positive allosteric modulator activity(ies) are evaluated in comparison to basal signals evoked by buffer B or EC20 glutamate alone, respectively.
Background: Calcium assays in cells follow changes in intracellular calcium, usually with a dye or a luminescent sensor.
As for `O=c1[nH]c(-c2cc3ccsc3cn2)nc2ccc(OCCCc3ccncc3F)cc12` [Compound 59, 6-[3-(3-Fluoro-pyridin-4-yl)-propoxy]-2-thieno[2,3-c]pyridin-5-yl-3H-quinazolin-4-one], the EC50 lay in the range of 100 to 1000 nM. Turning to `CCC(=O)N1CC(Oc2ccc3nc(-c4cc5ccsc5cn4)[nH]c(=O)c3c2)C1` [Compound 30, 6-(1-Propionyl-azetidin-3-yloxy)-2-thieno[2,3-c]pyridin-5-yl-3H-quinazolin-4-one], the EC50 lay within 100 to 1000 nM. For the compound `CC(=O)N1CCC(Oc2ccc3nc(-c4cc5ccsc5cn4)[nH]c(=O)c3c2)C1` (stereo not shown) [Compound 51, 6-(1-Acetyl-pyrrolidin-3-yloxy)-2-thieno[2,3-c]pyridin-5-yl-3H-quinazolin-4-one], the EC50 was 100 to 1000 nM. Turning to `O=c1[nH]c(-c2cc3ccsc3cn2)nc2c(C3CC3)cc(OCCCc3ccncc3)cc12` [Compound 73, 8-Cyclopropyl-6-(3-pyridin-4-yl-propoxy)-2-thieno[2,3-c]pyridin-5-yl-3H-quinazolin-4-one hydrochloride], the EC50 was 100 to 1000 nM.

As to `Cc1cc(CN2CCC(C(=O)N(C)C)CC2)cc2c(=O)[nH]c(-c3cc4sccc4cn3)nc12` [Compound 156, N,N-Dimethyl-14(8-methyl-4-oxo-2-(thieno[3,2-c]pyridin-6-yl)-3,4-dihydroquinazolin-6-yl)methyl)piperidine-4-carboxamide hydrochloride], the EC50 was not above 100 nM.

For the compound `Cc1cc(OC2CCN(C3COC3)CC2)cc2c(=O)[nH]c(-c3cc(C(F)(F)F)ccn3)nc12` [Compound 104, 8-Methyl-6-(1-oxetan-3-yl-piperidin-4-yloxy)-2-(4-trifluoromethyl-pyridin-2-yl)-3H-quinazolin-4-one], the EC50 is 100 to 1000 nM.

Turning to `Cc1cc(NCC(C)(C)O)cc2c(=O)[nH]c(-c3cc4ccsc4cn3)nc12` [Compound 94, 6-(2-Hydroxy-2-methyl-propylamino)-8-methyl-2-thieno[2,3-c]pyridin-5-yl-3H-quinazolin-4-one], the EC50 was in the range of 100 to 1000 nM.

For `COC1CCN(Cc2cc(C)c3nc(-c4cc5sccc5cn4)[nH]c(=O)c3c2)CC1` [Compound 152, 6-[(4-Methoxy-1-piperidyl)methyl]-8-methyl-2-thieno[3,2-c]pyridin-6-yl-3H-quinazolin-4-one hydrochloride], the EC50 was not above 100 nM. Turning to `CCc1ccnc(-c2nc3ccc(OCCCc4ccncc4)cc3c(=O)[nH]2)c1` [Compound 16, 2-(4-ethyl-2-pyridyl)-6-[3-(4-pyridyl)propoxy]-3H-quinazolin-4-one dihydrochloride], the EC50 is 1000 to 10000 nM. As for `Cc1cc(OC[C@@H]2CCOC2)cc2c(=O)[nH]c(-c3cc4ccsc4cn3)nc12` [Compound 80-R, R-8-Methyl-6-(tetrahydro-furan-3-ylmethoxy)-2-thieno[2,3-c]pyridin-5-yl-3H-quinazolin-4-one], the EC50 is not above 100 nM. The same measure, in the same setting: with `Cc1cc(N2CCC3(CCOCC3)C2)cc2c(=O)[nH]c(-c3cc4ccsc4cn3)nc12` [Compound 93, 8-Methyl-6-(8-oxa-2-aza-spiro[4.5]dec-2-yl)-2-thieno[2,3-c]pyridin-5-yl-3H-quinazolin-4-one] the figure was not above 100 nM; with `CCc1cc(OCCCc2ccncc2)cc2c(=O)[nH]c(-c3cc4ccsc4cn3)nc12` [Compound 74, 8-Ethyl-6-(3-pyridin-4-yl-propoxy)-2-thieno[2,3-c]pyridin-5-yl-3H-quinazolin-4-one hydrochloride], 100 to 1000 nM; with `Cc1cc(O[C@@H]2CC(=O)N(C)C2)cc2c(=O)[nH]c(-c3cc4sccc4cn3)nc12` [Compound 140-R, 8-Methyl-6-[(3R)-1-methyl-5-oxo-pyrrolidin-3-yl]oxy-2-thieno[3,2-c]pyridin-6-yl-3H-quinazolin-4-one], not above 100 nM. With `CC(C)(C)OC(=O)N1CCC(Oc2ccc3nc(-c4ccccn4)[nH]c(=O)c3c2)CC1` [Compound 39, 4-(4-Oxo-2-pyridin-2-yl-3,4-dihydro-quinazolin-6-yloxy)-piperidine-1-carboxylic acid tert-butyl ester], the EC50 is 1000 to 10000 nM. For `O=c1[nH]c(-c2cc(C(F)(F)F)ccn2)nc2ncc(OCCCc3ccncc3)cc12` [Compound 68, 6-(3-Pyridin-4-yl-propoxy)-2-(4-trifluoromethyl-pyridin-2-yl)-3H-pyrido[2,3-d]pyrimidin-4-one hydrochloride], the EC50 is more than 10000 nM. For `O=c1[nH]c(-c2cc3sccc3cn2)nc2ccc(OCc3ccc(Br)cc3)cc12` [Compound 24, 6-(4-Bromo-benzyloxy)-2-thieno[3,2-c]pyridin-6-yl-3H-quinazolin-4-one], the EC50 was more than 10000 nM. On the same count and under the same terms, the figure for `Cc1cc(OC2CCC(=O)N(C)C2)cc2c(=O)[nH]c(-c3cc4ccsc4cn3)nc12` (single isomer, unassigned) [Compound 81-E1, (R or S)-8-Methyl-6-((1-methyl-6-oxopiperidin-3-yl)oxy)-2-(thieno[2,3-c]pyridin-5-yl)quinazolin-4(3H)-one] is not above 100 nM.

With `Cc1cc(CCN2CCOCC2)cc2c(=O)[nH]c(-c3cc(C(F)(F)F)ccn3)nc12` [Compound 117, 8-methyl-6-(2-morpholinoethyl)-2-[4-(trifluoromethyl)-2-pyridyl]-3H-quinazolin-4-one hydrochloride], the EC50 is not above 100 nM. On the same count and under the same terms, the figure for `Cc1cc(CCN2CCCOCC2)cc2c(=O)[nH]c(-c3cnc4sccc4c3)nc12` [Compound 121, 8-Methyl-6-(2-[1,4]oxazepan-4-yl-ethyl)-2-thieno[2,3-b]pyridin-5-yl-3H-quinazolin-4-one hydrochloride] is 100 to 1000 nM.

On to `O=c1[nH]c(-c2cc3cccn3cn2)nc2ccc(OC3CN(c4ccncn4)C3)cc12` [Compound 27, 6-(1-Pyrimidin-4-yl-azetidin-3-yloxy)-2-pyrrolo[1,2-c]pyrimidin-3-yl-3H-quinazolin-4-one], for which the EC50 is more than 10000 nM. On to `Cc1cc(OCC2CCN(C3COC3)CC2)cc2c(=O)[nH]c(-c3cc4ccsc4cn3)nc12` [Compound 86, 8-Methyl-6-(1-oxetan-3-yl-piperidin-4-ylmethoxy)-2-thieno[2,3-c]pyridin-5-yl-3H-quinazolin-4-one], for which the EC50 was not above 100 nM. Regarding `Cc1cc(CN2CCN(C)CC2)cc2c(=O)[nH]c(-c3cc4ccsc4cn3)nc12` [Compound 132, 8-Methyl-6-[(4-methylpiperazin-1-yl)methyl]-2-thieno[2,3-c]pyridin-5-yl-3H-quinazolin-4-one dihydrochloride], the EC50 was 1000 to 10000 nM. For `O=c1[nH]c(-c2cccc(C(F)(F)F)n2)nc2ccc(OCCCc3ccncc3)cc12` [Compound 17, 6-[3-(4-pyridyl)propoxy]-2-[6-(trifluoromethyl)-2-pyridyl]-3H-quinazolin-4-one hydrochloride], the EC50 is not above 100 nM.

Staying with this experiment, now noted: up to 100 μM.
As for `Cl.O=c1[nH]c(-c2cccnc2)nc2ccc(OCCCc3ccncc3)cc12` [Compound 6, 2-Pyridin-3-yl-6-(3-pyridin-4-yl-propoxy)-3H-quinazolin-4-one hydrochloride], the “PAM activity on mGluR4” value is reported as “no PAM activity”. `O=c1[nH]c(-c2cccc(C(F)(F)F)c2)nc2ccc(OCCCc3ccncc3)cc12` [Compound 21, 6-[3-(4-pyridyl)propoxy]-2-[3-(trifluoromethyl)phenyl]-3H-quinazolin-4-one hydrochloride]: the “PAM activity on mGluR4” value was “no PAM activity”.

The values above are taken from patent US20220089609A1, “SUBSTITUTED QUINAZOLINONE DERIVATIVES AND THEIR USE AS POSITIVE ALLOSTERIC MODULATORS OF MGLUR4” (DOMAIN THERAPEUTICS, priority 2018, published 2022).
